The text below walks through data of patent US11304918B2, “Methods and compositions for the treatment of diverticulosis” (Emmaus Medical, Inc., priority 2011, dated 2022).

Each structure is given as a SMILES string.

The assay relates to diverticula. Description: Number of diverticula observed by colonoscopy in a person with diverticulosis ingesting L-glutamine. To be noted: one person, 30 g of L-glutamine per day as an aqueous solution, ingested, after twelve months. It is filed as in vivo. An excerpt:
Compositions according to the present invention may be used to treat diverticulosis as determined by a number of different methods to image colon pouches. Nonlimiting examples of imaging methods include: colonoscopy; computed tomography; and, x-ray based on a barium enema. […] The person ingested 30 g of L-glutamine per day as an aqueous solution. After twelve months of L-glutamine administration, the number of diverticula had been reduced by ninety (90) percent.

As for `NC(=O)CC[C@H](N)C(=O)O` [L-glutamine], the “reduction of the number of diverticula” value turned out to be 90%.
